We go through seven compounds from patent US20240132524A1, “SMALL MOLECULES FOR BORON NEUTRON CAPTURE THERAPY” (Aviko Radiopharmaceuticals, LLC, priority 2022, published 2024).

For one experiment, the system named is SAS (head & neck cancer). Description: Cell uptake assay in SAS cells. It counts as cell-based, human. To be noted: 0.1 mM. As to the method:
(§1) • 1.1.1 15 mL of cell culture medium was placed into a T225 flask. • 1.1.2 The flask was placed in a humidified 37° C., 5% CO2 incubator for 15 minutes to allow medium to equilibrate to the proper pH and temperature. • 1.1.3 The vial was removed from liquid nitrogen and thawed rapidly by placing at 37° C. in a water bath with gentle agitation for 1-2 minutes and then decontaminated by wiping with 70% ethanol before opening in a Class II biological safety cabinet. • 1.1.4 The vial contents were transferred dropwise into 10 mL of cell culture medium in a sterile 15 mL conical tube. • 1.1.5 The cells were centrifuged at 1,300 rpm for 5 minutes. • 1.1.6 The supernatant was aspirated and re-suspended the cells and transferred the cells into T225 flask containing cell culture medium.
(§2) • 1.2.1 Culture medium were renewed every 2-3 days. • 1.2.2 Keep the flask in a humidified 37° C., 5% CO2 incubator
(§3) Cells were harvested and diluted in culture medium to the designated concentration. Then the cells were cultured in T25 flasks, one T25 flask for one sample. 2.2 Formulation of test compounds • 2.2.1 L-Boronophenylalanine (L-BPA, 4-boron-L-phenylalanine, Purity: 95%, Chemical formula: C9H12BNO4, MW: 209.01, CAS: 76410-58-7) and fructose were dissolved in PBS at a molar ratio of 1:5, and then a 1.27 M ratio of 1 N NaOH is added. The mixture was stirred until L-BPA is completely dissolved, and the pH value was titrated to 7.2-7.4 with 1N HCl. • 2.2.2 For test compounds other than BPA, stock solutions were prepared of each compound in DMSO or fructose formulation at a concentration of 20 mM (such that final % DMSO in the cellular assay medium=0.5%)
(§4) • 2.3.1 The cells were seeded overnight (12-18 hours) to allow the cells to adhere well. • 2.3.2 The stock solution of each compound was added to each T25 flask such that the final concentration for each compound is 100 uM (0.1 mM). • 2.3.3 The flasks were placed in a 37° C., […] for 1 hour, 4 hour, and 24 hours, the cells were collected by using 0.25% Trypsin with 0.53 mM EDTA. 2.3.5 Centrifuged at 1,300 rpm for 5 min to collect cell pellets.

Experiment [1] concerns NIH-3T3 (normal cell line). Description: Cell uptake assay in NIH-3T3 cells. It counts as cell-based, mouse. The note with it: 0.1 mM. As to the method: as §1, §2, §3, §4
The test system of the next experiment is U87-MG (glioblastoma). The experiment can be described thus: Cell uptake assay in U87-MG cells. It counts as cell-based, human. The note with it: 0.1 mM. As to the method: as §1, §2
as §3, with “medium=0.5%) […]” for “medium=0.5%)”

The next experiment has as its system B16F10 (melanoma). Description: Cell uptake assay in B16F10 cells. It counts as cell-based, mouse. To be noted: 0.1 mM. As to the method:
as §1, §2, §3, §4

The test system of experiment [2] is SAS, B16F10, U87-MG relative to NIH-3T3. The experiment can be described thus: Cell uptake assays, cancer cell lines compared with normal cell line. It counts as cell-based, human. As to the method:
as §1, §2
Cells were harvested and diluted in culture medium to the designated concentration. Then the cells were cultured in T25 flasks, one T25 flask for one sample. 2.2 Formulation of test compounds • 2.2.1 L-Boronophenylalanine (L-BPA, 4-boron-L-phenylalanine, Purity: 95%, Chemical formula: C9H12BNO4, MW: 209.01, CAS: 76410-58-7) and fructose were dissolved in PBS at a molar ratio of 1:5, and then a 1.27 M ratio of 1 N NaOH is added. […]

“And” between values parts separate entries of the source, which are not always exact repeats. Equal values may be shown once.

For the compound `N[C@@H](Cc1cccc(B(O)O)c1O)C(=O)O` [Comparator Compound B, reference compound], the “Cell uptake, Mean (ng/10^6 cell), SAS” value in the experiment with SAS (head & neck cancer) (1 h) worked out at 510 ng/10^6 cell; in the experiment with SAS (head & neck cancer) (4 h) it was 487 ng/10^6 cell; with SAS (head & neck cancer) (24 h), 1465 ng/10^6 cell. The “Cell uptake, Mean (ng/10^6 cell), NIH-3T3” value (from here on “Cell uptake, Mean … NIH-3T3”) is listed as 186 ng/10^6 cell in experiment [1] (1 h), 122 ng/10^6 cell in experiment [1] (4 h) and 217 ng/10^6 cell in experiment [1] (24 h). Further, the results for the “Cell uptake, Mean (ng/10^6 cell), U87-MG” value with U87-MG (glioblastoma) (1 h), in the experiment on U87-MG (glioblastoma) (4 h) and with U87-MG (glioblastoma) (24 h) were 380 ng/10^6 cell, 519 ng/10^6 cell and 250 ng/10^6 cell, respectively. The “Cell uptake, Mean (ng/10^6 cell), B16F10” value in the experiment on B16F10 (melanoma) (1 h) is recorded as 131 ng/10^6 cell; in the experiment with B16F10 (melanoma) (4 h), 248 ng/10^6 cell; in the experiment with B16F10 (melanoma) (24 h), 662 ng/10^6 cell.

`N[C@@H](Cc1cccc(B(O)O)c1O)C(=O)O` [Compound 1, (S)-2-amino-3-(3-borono-2-hydroxyphenyl)propanoic acid]: the “Selective uptake by cancer cell lines relative to normal cell line” value in experiment [2] (SAS, B16F10, U87-MG relative to NIH-3T3) was “selective partitioning into cancer cells relative to normal cells”. Besides, the “Uptake in cancer cells relative to Comparator Compounds A and B” value in experiment [2] (cancer cells) was “increased uptake in cancer cells relative to Comparator Compounds A and B”. The results for the “Cell uptake, Mean (ng/10^6 cell), SAS” value in the experiment with SAS (head & neck cancer) (1 h), with SAS (head & neck cancer) (4 h) and in the experiment with SAS (head & neck cancer) (24 h) were 863 ng/10^6 cell, 1400 ng/10^6 cell and 2625 ng/10^6 cell, respectively. Moreover, the “Cell uptake, Mean … NIH-3T3” value in experiment [1] (1 h) turned out to be 109 ng/10^6 cell; in experiment [1] (4 h) it was 194 ng/10^6 cell; in experiment [1] (24 h), 122 ng/10^6 cell. Further, the “Cell uptake, Mean (ng/10^6 cell), U87-MG” value in the experiment on U87-MG (glioblastoma) (1 h) amounted to 175 ng/10^6 cell; with U87-MG (glioblastoma) (4 h), 713 ng/10^6 cell; with U87-MG (glioblastoma) (24 h) it was 1315 ng/10^6 cell. Besides, the “Cell uptake, Mean (ng/10^6 cell), B16F10” value in the experiment with B16F10 (melanoma) (1 h) was determined as 158 ng/10^6 cell; in the experiment with B16F10 (melanoma) (4 h), 282 ng/10^6 cell; in the experiment with B16F10 (melanoma) (24 h), 669 ng/10^6 cell.

In the case of `N[C@@H](Cc1c(F)ccc(B(O)O)c1O)C(=O)O` [Compound 3, (2S)-2-amino-3-[3-(dihydroxyboranyl)-6-fluoro-2-hydroxyphenyl]propanoic acid], the results for the “Cell uptake, Mean (ng/10^6 cell), SAS” value with SAS (head & neck cancer) (1 h), with SAS (head & neck cancer) (4 h) and with SAS (head & neck cancer) (24 h) were 1320 ng/10^6 cell, 1295 ng/10^6 cell and 1580 ng/10^6 cell, respectively. In addition, the “Cell uptake, Mean … NIH-3T3” value in experiment [1] (1 h) is 105 ng/10^6 cell; in experiment [1] (4 h), 196 ng/10^6 cell; in experiment [1] (24 h), 182 ng/10^6 cell. Moreover, the “Cell uptake, Mean (ng/10^6 cell), U87-MG” value is 307 ng/10^6 cell with U87-MG (glioblastoma) (1 h), 621 ng/10^6 cell with U87-MG (glioblastoma) (4 h) and 555 ng/10^6 cell with U87-MG (glioblastoma) (24 h). Moreover, the “Cell uptake, Mean (ng/10^6 cell), B16F10” value was 66.5 ng/10^6 cell with B16F10 (melanoma) (1 h), 255 ng/10^6 cell in the experiment on B16F10 (melanoma) (4 h) and 196 ng/10^6 cell in the experiment on B16F10 (melanoma) (24 h).

As for `N[C@@H](Cc1ccc(F)c(B(O)O)c1O)C(=O)O` [Compound 4, (2S)-2-amino-3-[3-(dihydroxyboranyl)-4-fluoro-2-hydroxyphenyl]propanoic acid], the “Cell uptake, Mean (ng/10^6 cell), SAS” value in the experiment with SAS (head & neck cancer) (1 h) came to 33.1 ng/10^6 cell; in the experiment with SAS (head & neck cancer) (4 h), 191 ng/10^6 cell; with SAS (head & neck cancer) (24 h), 886 ng/10^6 cell. The “Cell uptake, Mean … NIH-3T3” value in experiment [1] (1 h) is on record as 28.3 ng/10^6 cell; in experiment [1] (4 h) it was 36.9 ng/10^6 cell; in experiment [1] (24 h), 55.3 ng/10^6 cell. Besides, the figures for the “Cell uptake, Mean (ng/10^6 cell), U87-MG” value in the experiment on U87-MG (glioblastoma) (1 h), with U87-MG (glioblastoma) (4 h) and in the experiment on U87-MG (glioblastoma) (24 h) were 14.3 ng/10^6 cell, 40 ng/10^6 cell and 117 ng/10^6 cell, respectively. Moreover, the “Cell uptake, Mean (ng/10^6 cell), B16F10” value amounted to 29.5 ng/10^6 cell in the experiment with B16F10 (melanoma) (1 h), 39.1 ng/10^6 cell in the experiment with B16F10 (melanoma) (4 h) and 48.1 ng/10^6 cell in the experiment with B16F10 (melanoma) (24 h).

With `N[C@@H](Cc1cc(Cl)cc(B(O)O)c1O)C(=O)O` [Compound 6, (2S)-2-amino-3-[5-chloro-3-(dihydroxyboranyl)-2-hydroxyphenyl]propanoic acid], the “Cell uptake, Mean (ng/10^6 cell), SAS” value in the experiment on SAS (head & neck cancer) (1 h) was found to be 373 ng/10^6 cell; in the experiment on SAS (head & neck cancer) (4 h), 796 ng/10^6 cell; in the experiment with SAS (head & neck cancer) (24 h), 1735 ng/10^6 cell. The entries for the “Cell uptake, Mean … NIH-3T3” value in experiment [1] (1 h), in experiment [1] (4 h) and in experiment [1] (24 h) were 20.3 ng/10^6 cell, 59.8 ng/10^6 cell and 50.8 ng/10^6 cell, respectively. Further, the “Cell uptake, Mean (ng/10^6 cell), U87-MG” value in the experiment on U87-MG (glioblastoma) (1 h) was found to be 58.6 ng/10^6 cell; in the experiment on U87-MG (glioblastoma) (4 h), 171 ng/10^6 cell; with U87-MG (glioblastoma) (24 h), 244 ng/10^6 cell. Also, the “Cell uptake, Mean (ng/10^6 cell), B16F10” value with B16F10 (melanoma) (1 h) was found to be 39.6 ng/10^6 cell; in the experiment on B16F10 (melanoma) (4 h), 75.9 ng/10^6 cell; in the experiment with B16F10 (melanoma) (24 h), 222 ng/10^6 cell.

For the compound `N[C@@H](Cc1cc(F)cc(B(O)O)c1O)C(=O)O` [Compound 8, (2S)-2-amino-3-13-(dihydroxyboranyl)-5-fluoro-2-hydroxyphenyllpropanoic acid], the “Cell uptake, Mean (ng/10^6 cell), SAS” value with SAS (head & neck cancer) (1 h) came to 561 ng/10^6 cell; in the experiment on SAS (head & neck cancer) (4 h), 693 ng/10^6 cell; in the experiment with SAS (head & neck cancer) (24 h), 1605 ng/10^6 cell. Besides, the “Cell uptake, Mean … NIH-3T3” value in experiment [1] (1 h) came out at 51.7 ng/10^6 cell; in experiment [1] (4 h) it was 119 ng/10^6 cell; in experiment [1] (24 h), 101 ng/10^6 cell. The “Cell uptake, Mean (ng/10^6 cell), U87-MG” value is 173 ng/10^6 cell in the experiment with U87-MG (glioblastoma) (1 h), 505 ng/10^6 cell in the experiment on U87-MG (glioblastoma) (4 h) and 545 ng/10^6 cell in the experiment on U87-MG (glioblastoma) (24 h). Moreover, the “Cell uptake, Mean (ng/10^6 cell), B16F10” value was 115 ng/10^6 cell in the experiment on B16F10 (melanoma) (1 h), 185 ng/10^6 cell in the experiment with B16F10 (melanoma) (4 h) and 615 ng/10^6 cell in the experiment on B16F10 (melanoma) (24 h).

For the compound `N[C@@H](Cc1ccc(B(O)O)cc1)C(=O)O` [L-BPA, 4-Borono-L-phenylalanine], the “Cell uptake, Mean (ng/10^6 cell), SAS” value was 425 ng/10^6 cell and 407 ng/10^6 cell and 260 ng/10^6 cell and 254 ng/10^6 cell and 218 ng/10^6 cell with SAS (head & neck cancer) (1 h); 394 ng/10^6 cell in the experiment on SAS (head & neck cancer) (2 h); 379 ng/10^6 cell and 352 ng/10^6 cell and 251 ng/10^6 cell and 219 ng/10^6 cell and 217 ng/10^6 cell with SAS (head & neck cancer) (4 h); 423 ng/10^6 cell and 444 ng/10^6 cell and 501 ng/10^6 cell and 261 ng/10^6 cell and 345 ng/10^6 cell and 336 ng/10^6 cell with SAS (head & neck cancer) (24 h). Besides, the “Cell uptake, Mean … NIH-3T3” value in experiment [1] (2 h) is given as 177 ng/10^6 cell. Moreover, the “Cell uptake, Mean (ng/10^6 cell), U87-MG” value in the experiment with U87-MG (glioblastoma) (1 h) was 391 ng/10^6 cell and 343 ng/10^6 cell and 233 ng/10^6 cell and 196 ng/10^6 cell and 297 ng/10^6 cell; in the experiment with U87-MG (glioblastoma) (2 h), 223 ng/10^6 cell. For the same compound, the “Cell uptake, Mean (ng/10^6 cell), B16F10” value was 986 ng/10^6 cell in the experiment on B16F10 (melanoma) (2 h); 247 ng/10^6 cell and 224 ng/10^6 cell and 188 ng/10^6 cell and 191 ng/10^6 cell and 185 ng/10^6 cell in the experiment on B16F10 (melanoma) (4 h).
